From US8987285B2, “Pharmaceutical compositions, dosage forms and new forms of the compound of formula (I), and methods of use thereof” (Portola Pharmaceuticals, Inc., priority 2010, dated 2015)
Where two headings read alike, the source gives them in different places.

Columns and labels:
Assay type in all cases: physicochemical
[1] = Wettability: contact angle measurement with water on pressed powder; settings: water, in ° (unit assumed)
Description: Contact angel instrument: EasyDrop DSA15E (Krüss, Hamburg, Germany)
Syringe: NE44, diameter of needle 0.5 mm (Krüss, Hamburg, Germany)
The powder was pressed (approx 50 mg powder, 3 tons, 2 min) in tablets and analyzed by contact angle measurement. The angel between the solid and the liquid is measured after 0 and up to 60 seconds using water.
All determinations used the above method and the limit for the standards measurements are well within the given limits.

[2] = Supersaturation stabilization experiment with PVP K90 (CheqSol)
Excerpt: Typically the higher the super saturation, the faster and the more extensive is the precipitation which occurs. On the other hand, higher bioavailability may be achieved by using excipients which interact with the drug in the super-saturated state. In this super-saturated state, precipitation is inhibited and/or delayed, thus leading to higher luminal drug concentrations in vivo of the dissolved drug. […] The present invention thus provides a pharmaceutical composition which achieves higher bioavailability of the drug substance.

[3] = Super-saturation measurement (CheqSol): intrinsic and kinetic solubility; settings: for ratio super saturation: kinetic solubility divided by intrinsic solubility
Excerpt: Anal. Chem. 2005, 77(4), 983-990; 2—Box, K J. Völgyi, G. Baka, E. Stuart, M. Takács-Novák, K. Corner, J E A. Equilibrium vs. kinetic measurements of aqueous solubility, and the ability of compounds to supersaturate in solution—a validation study. J. Pharm. Sci. 2006, 95, 1298-1307; 3—Sköld, C. Winiwarter, S. Johan Wernevik, J. Bergström, F. Engström, L. Allen, R. Box, K. Corner, J. Mole, J. Hallberg, A. Lennernäs, H. Lundstedt, T. Ungell, A-L. Karlén, A. Presentation of a Structurally Diverse and Commercially Available Drug Data Set for Correlation and Benchmarking Studies. J. Med. Chem. 2006, 49(23), 6660-6671;
. Med. Chem.; 2007, 50 (5), 979-983; 5—Llinás, A. Box, K J. Burley, J C. Glen, R C. Goodman, J M. J. A new method for the reproducible generation of polymorphs: two forms of Sulindac with very different solubilities. […] 6—Box K et al, Using Measured pKa, Log P and Solubility to Investigate Supersaturation and Predict BCS Class, Current Drug Metabolism, 2008, 9, 869-878]
1—kinetic solubility is the concentration of a compound in solution at the time when an induced precipitate first appears
2—equilibrium solubility (also called thermodynamic solubility) is the concentration of compound in a saturated solution when excess solid is present, and solution and solid are at equilibrium
3—intrinsic solubility [Hörter, D.; Dressman, J. B. Adv. Drug Deliv. Rev., 1997, 25, 3-14] is the equilibrium solubility of the free acid or base form of an ionisable compound at a pH where it is fully un-ionized
The super-saturation ratio is calculated as the ratio of kinetic solubility divided by the Intrinsic Solubility.

[4] = pKa, log P and log D of the compound of formula (II)
Excerpt: The pKa of the compound of formula (II) is about 3.3, with a log P of about 2.5 and log D (pH7.4) of about −1.6.

[5] = Aqueous solubility of the free acid versus pH; settings: aqueous buffer
Excerpt: […]. […] In certain instances, the active agent is initially present at least partly in an ionized form. In certain other instances, the active agent is initially present in an un-ionized form.

[6] = Saturation solubility, shake-flask with UV quantification; settings: for solubility at 72 h: thermodynamic from solid
Description: The FaSSIF and FeSSIF solutions were prepared using Phares SIF powder according to the formulation instructions and the SGF solution was prepared using the guidelines provided. […] The pH and temperature of the supernatant were measured on a SiriusT3 instrument.

SMILES: CNc1cc2[nH]c(=O)n(-c3ccc(NC(=O)NS(=O)(=O)c4ccc(Cl)s4)cc3)c(=O)c2cc1F [compound of formula (II), elinogrel]
- Contact angle ([1]; 0 sec): 65.9
- Contact angle ([1]; 30 sec): 60.8
- Contact angle ([1]; 60 sec): 60.1
- stable super-saturation ([2]; PVP K90 to drug 1:1 by weight, pH>6.0, for 66 hours): 17-86 fold
- concentration in solution with PVP ([2]; after 67 h with PVP, pH 7.2): 860 µg/mL
- solubility ([2]; aqueous buffer, pH 6.0, read-out: solubility measured by Sirius CheqSol): 9.9 µg/mL
- solubility at 66 h ([2]; pH 7.2, aqueous buffer): ~170 µg/mL
- solubility kinetic ([3]; kinetic from dmso stock, CheqSol): 4.17 µg/mL
- ratio super saturation ([3]; listed as Free acid): 179
- ratio super saturation ([3]; listed as free acid of formula (II)): 178
- solubility ([3]; thermodynamic from solid, CheqSol): 0.0234 µg/mL
- LogP [4]: ~2.5
- pKa ([4]; first pKa): about 3.3
- logD ([4]; pH 7.4, pH7.4): ~-1.6
- pKa ([4]; read-out: second pKa): 10.3
- solubility ([5]; pH 1.0-7.4, read-out: aqueous solubility of the free acid form): < 100 µg/mL
- solubility ([5]; pH 8 or above, read-out: aqueous solubility): ≥ 1000 µg/mL
- final pH measured of the supernatant ([6]; FaSSIF pH 6.5-1w): 6.42
- final pH measured of the supernatant ([6]; FeSSIF pH 5.0-1w): 4.97
- final pH measured of the supernatant ([6]; Na Phosphate pH 6.8): 6.80
- final pH measured of the supernatant ([6]; Na-Acetate pH 4.5): 4.53
- final pH measured of the supernatant ([6]; SGF pH 2.1): 2.21
- solubility at 72 h ([6]; aqueous buffer, Na Phosphate pH 6.8, mean N = 2): 11.3 µg/mL
- solubility at 72 h ([6]; aqueous buffer, Na-Acetate pH 4.5, mean N = 2): 0.89 µg/mL
- solubility at 72 h ([6]; simulated gastric fluid, SGF pH 2.1, mean N = 2): 0.48 µg/mL
- solubility at 72 h ([6]; FaSSIF pH 6.5-1w, mean N = 2): 25.2 µg/mL
- solubility at 72 h ([6]; FeSSIF pH 5.0-1w, mean N = 2): 6 µg/mL
